# Source: US20140302012A1, “Combination Therapies for Treating Hematologic Malignancies Using Pyridopyrimidinone Inhibitors of PI3K/mTOR with Bendamustine and/or Rituximab” (priority 2011, published 2014)
# Read-outs that look alike come from different tables or passages of the source.
# Key:
# [1] = assay type: in vivo
# Protocol: The animals required to begin a given experiment were pooled and implanted monolaterally on day 0. Treatments were administered on measurable tumors. The solid tumors were allowed to grow to the desired volume range (animals with tumors not in the desired range were excluded). The mice were then pooled and unselectively distributed to the various treatment and control groups. Treatment started 20 days post WSU-DLCL2 tumor fragment implantation as indicated in the results section and in each table. The dosages are expressed in mg/kg, based on the body weight at start of therapy. Mice were checked daily, and adverse clinical reactions noted. Each group of mice was weighed as a whole daily until the weight nadir was reached. Then, groups were weighed once to thrice weekly until the end of the experiment. Tumors were measured with a calliper 2 to 3 times weekly until final sacrifice for sampling time, tumor reached 2000 mm^3 or until the animal died (whichever comes first). Solid tumor volumes were estimated from two-dimensional tumor measurements and calculated according to the following equation: […]
# The day of death was recorded. Surviving animals were sacrificed and macroscopic examination of the thoracic and abdominal cavities was performed.
# A dosage producing a 15% body weight loss (BWL) during three consecutive days (mean of group), 20% BWL during 1 day or 10% or more drug deaths was considered an excessively toxic dosage. Animal body weights included the tumor weight.
# [2] = tested on: human WSU-DLCL2; assay: Antitumor activity against human WSU-DLCL2 xenografts in SCID female mice; assay type: in vivo; conditions: for Median (nMad) tumor volume changes from baseline: n = 7
# Protocol: To evaluate the antitumor activity of Bendamustine in combination with the dual pan-PI3K/mTOR inhibitor Compound A, experiments were conducted using female SCID mice bearing human WSU-DLCL2 xenografts. In this study, Bendamustine at 3.5 and 7 mg/kg was tested in combination with Compound A at 20 mg/kg.
# CB17/1CR-Prkdc severe combined immunodeficiency (SCID)/Crl mice, at 8-10 weeks old, were bred at Charles River France (Domaine des Oncins, 69210 L'Arbreste, France) from strains obtained from Charles River, USA. Mice were over 18 g at start of treatment after an acclimatization time of at least 5 days. […] They were housed on a 12 hours light/dark cycle. Environmental conditions including animal maintenance, room temperature (22° C.±2° C.), relative humidity (55%±15%) and lighting times were recorded by the supervisor of laboratory animal sciences and welfare (LAW) and the records are archived.
# The human WSU-DLCL2 tumor model was established by implanting (SC) small tumor fragments and was maintained in SCID female mice using serial passages.
# Bendamustine formulation was prepared by incorporating the compound into NaCl 0.9% at pH 3. The preparation was prepared daily prior administration. The volume of IP administration per mouse was 10 mL/kg.
# (§1) Compound A formulations were prepared in 1N HCl and water for injection, final pH was 3, followed by five cycles of vortexing and sonicating. The stock solution was chemically stable 7 days in the dark at 4° C. The volume of PO administration per mouse was 10 mL/kg.
# For subcutaneous implantation of tumor cells, skin in the flank of the mice was disinfected using alcohol or Betadine® solution (Alcyon) and a suspension of tumor cells was inoculated SC unilaterally under a volume of 0.2 mL using a 23 G needle.
# The animals required to begin a given experiment were pooled and implanted monolaterally on day 0. Treatments were administered on measurable tumors. The solid tumors were allowed to grow to the desired volume range (animals with tumors not in the desired range were excluded). The mice were then pooled and unselectively distributed to the various treatment and control groups. […] The dosages are expressed in mg/kg, based on the body weight at start of therapy. Mice were checked daily, and adverse clinical reactions noted. Each group of mice was weighed as a whole daily until the weight nadir was reached. Then, groups were weighed once to thrice weekly until the end of the experiment. Tumors were measured with a calliper 2 to 3 times weekly until final sacrifice for sampling time, tumor reached 2000 mm^3 or until the animal died (whichever comes first). Solid tumor volumes were estimated from two-dimensional tumor measurements and calculated according to the following equation:
# Tumor weight (mg)=Length (mm)×Width^2(mm^2)/2
# The primary efficacy end points are ΔT/ΔC, percent median regression, partial and complete regressions (PR and CR).
# Changes in tumor volume for each treated (T) and control (C) group were calculated for each tumor by subtracting the tumor volume on the day of first treatment (staging day) from the tumor volume on the specified observation day. The median ΔT is calculated for the treated group, and the median ΔC is calculated for the control group. Then the ratio ΔT/ΔC is calculated and expressed as a percentage. The dose is considered as therapeutically active when ΔT/ΔC is lower than 40% and very active when ΔT/ΔC is lower than 10%.
# Partial regression: Regressions are defined as partial if the tumor volume decreases to 50% or the tumor volume at the start of treatment.
# Complete regression: The CR is achieved when tumor volume=0 mm^3 (CR is considered when tumor volume cannot be recorded).
# The term “therapeutic synergy” is used when the combination of two products at given doses is more efficacious than the best of the two products alone considering the same doses.
# [3] = Maximum tolerated dose of Compound A administered as single agent; conditions: twice daily
# [4] = Chemical stability of Compound A stock solution; assay type: physicochemical; conditions: formulation in 1N HCl and water for injection, final pH 3; in the dark at 4° C.
# Protocol: as §1
# [5] = Bendamustine 3.5 mg/kg per injection (total 21) IP, days 20-25
# [6] = Bendamustine 7 mg/kg per injection (total 42) IP, days 20-25
# [7] = Compound A 20 mg/kg per injection (total 240) PO, days 20-31
smiles,measurement,setting,value
"Cn1c(CCCC(=O)O)nc2cc(N(CCCl)CCCl)ccc21 [Bendamustine, 4-[5-[Bis(2-chloroethyl)amino]-1-methylbenzimidazol-2-yl]butanoic acid]",Average body weight change in % per mouse at nadir,[1]; [5],−3.8%
same,Drug death (Day of death),[1]; [5],0/7
same,day of nadir (body weight),[1]; [5],28 days
same,Average body weight change in % per mouse at nadir,[1]; [6],−7.2%
same,Drug death (Day of death),[1]; [6],0/7
same,day of nadir (body weight),[1]; [6],27 days
same,Tolerability,"[1]; as single agents or in combination: Bendamustine 3.5 and 7 mg/kg, Compound A 20 mg/kg",tolerated
same,Regressions Complete,[2]; [5],0/7
same,Regressions Partial,[2]; [5],0/7
same,Median (nMad) tumor volume changes from baseline,"[2]; Bendamustine 3.5 mg/kg, Day 24",170 (62.3)
same,Median (nMad) tumor volume changes from baseline,"[2]; Bendamustine 3.5 mg/kg, Day 26",222 (89)
same,Median (nMad) tumor volume changes from baseline,"[2]; Bendamustine 3.5 mg/kg, Day 28",268 (252)
same,Median (nMad) tumor volume changes from baseline,"[2]; Bendamustine 3.5 mg/kg, Day 31",483 (247.6)
same,Regressions Complete,[2]; [6],0/7
same,Regressions Partial,[2]; [6],0/7
same,Median (nMad) tumor volume changes from baseline,"[2]; Bendamustine 7 mg/kg, Day 24",267 (198.7)
same,Median (nMad) tumor volume changes from baseline,"[2]; Bendamustine 7 mg/kg, Day 26",317 (258)
same,Median (nMad) tumor volume changes from baseline,"[2]; Bendamustine 7 mg/kg, Day 28",306 (268.4)
same,Median (nMad) tumor volume changes from baseline,"[2]; Bendamustine 7 mg/kg, Day 31",477 (249.1)
"CCn1c(=O)c(-c2ccn[nH]2)cc2c(C)nc(N)nc21 [Compound A, 2-amino-8-ethyl-4-methyl-6-(1H-pyrazol-5-yl)pyrido[2,3-d]pyrimidin-7(8H)-one]",Drug death (Day of death),[1]; [7],0/7
same,Average body weight change in % per mouse at nadir,"[1]; mouse, in vivo, po, 20 mg/kg",−2.0%
same,day of nadir (body weight),"[1]; mouse, in vivo, po, 20 mg/kg",21 days
same,Regressions Complete,[2]; [7],0/7
same,Regressions Partial,[2]; [7],0/7
same,Median ΔT/ΔC in % day 31,"[2]; Compound A 20 mg/kg per injection (total 240) PO, days 20-31, day 31, 20 mg/kg",54%
same,Median (nMad) tumor volume changes from baseline,"[2]; Compound A 20 mg/kg, Day 24",145 (139.4)
same,Median (nMad) tumor volume changes from baseline,"[2]; Compound A 20 mg/kg, Day 26",218 (26.7)
same,Median (nMad) tumor volume changes from baseline,"[2]; Compound A 20 mg/kg, Day 28",242 (172)
same,Median (nMad) tumor volume changes from baseline,"[2]; Compound A 20 mg/kg, Day 31",314 (317.3)
same,MTD of Compound A administered as single agent,[3],50 mg BID
same,Chemical stability of stock solution,[4],7 days
